Results from EP3046573B1, “AMYLIN ANALOGUES” (Zealand Pharma A/S, priority 2013, dated 2015).
Numbered stars: 1 amine (or outer) side, 2 acyl side, 3 side chain; on linkers, the order of the positions; unused ones are H or OH. Bridge positions count the residues as written; N and C are the ends. Square brackets hold non-standard residues; d marks the D form. Peptide text beside a SMILES is read from it. * marks the point of attachment. C20 diacid = O=C(O)CCCCCCCCCCCCCCCCCCC(=O)*; γGlu = O=C(O)[C@H](CCC(=O)[*:2])N[*:1]; NMeI = CC[C@H](C)[C@H](NC)C(=O)O; Sar = CNCC(=O)O

Experiments:
[1] = target: T1, human calcitonin receptor (hCTR2) (Homo sapiens, UniProt P30988); test: hCTR2 assay: induction of cAMP (AlphaScreen cAMP Assay kit) in COS7 cells expressing hCTR2; format: cell-based; conditions: cAMP induction in COS7 cells expressing hCTR2; average of a minimum of 3 determinations; read-out: hCTR2 EC50
T1 construct: expressed in transfected cells
T1 sequence (P30988 25-474): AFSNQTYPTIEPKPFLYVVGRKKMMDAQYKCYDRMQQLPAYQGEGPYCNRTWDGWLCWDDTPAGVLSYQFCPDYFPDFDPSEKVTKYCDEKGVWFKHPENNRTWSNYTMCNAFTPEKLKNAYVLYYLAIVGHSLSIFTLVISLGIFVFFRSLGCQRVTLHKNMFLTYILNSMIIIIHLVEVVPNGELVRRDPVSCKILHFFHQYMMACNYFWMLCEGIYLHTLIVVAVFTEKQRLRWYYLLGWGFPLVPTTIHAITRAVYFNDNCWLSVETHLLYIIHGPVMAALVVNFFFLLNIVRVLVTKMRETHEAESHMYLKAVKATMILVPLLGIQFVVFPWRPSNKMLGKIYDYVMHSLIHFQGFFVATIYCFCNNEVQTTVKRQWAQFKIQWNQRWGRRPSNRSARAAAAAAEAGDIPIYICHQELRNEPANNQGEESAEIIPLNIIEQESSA
Method in brief: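 cAMP induction was measured by AlphaScreen in COS7 cells stably expressing hCTR2 without RAMPs, after 15 min at 37° C with increasing peptide concentrations, 100 µM IBMX and 0.1% casein (Tyrode, pH 7.4). A 4-parameter logistic fit gave EC50 and % efficacy versus pramlintide.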

[2] = Solubility assessment (turbidity absorbance at 325 nm); format: physicochemical; conditions: stock 2 mg/ml diluted 1:1, ambient temperature (typically 25°C), n=1; for Solubility, Acetate buffer pH 4: 100 mM acetate buffer pH 4.0; for Solubility, Acetate buffer pH 5: 100 mM acetate buffer pH 5.0; for Solubility, Histidine buffer pH 6: 100 mM histidine buffer pH 6.0; for Solubility, Histidine buffer pH 7: 100 mM histidine buffer pH 7.0; for Solubility, Phosphate buffer pH 6: 100 mM phosphate buffer pH 6.0; for Solubility, Phosphate buffer pH 7: 100 mM phosphate buffer pH 7.0; for Solubility, Phosphate buffer pH 7.5: 100 mM phosphate buffer pH7.5
Method in brief: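 Turbidity read as absorbance at 325 nm (also 280 nm), single samples at ambient temperature (typically 25°C); ≤ 0.02 units counts as ≥ 1 mg/ml soluble. Samples made by 1:1 dilution of a 2 mg/ml acidic stock into 100 mM acetate, histidine or phosphate buffers, pH 4.0–7.5.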

CC[C@H](C)[C@@H](C(=O)N[C@@H](CC(C)C)C(=O)N[C@@H](CO)C(=O)N[C@@H](CO)C(=O)N[C@H](C(=O)N[C@@H](CC(N)=O)C(=O)N[C@H](C(=O)NCC(=O)N[C@@H](CO)C(=O)N[C@@H](CC(N)=O)C(=O)N[C@H](C(=O)N1CCC[C@H]1C(N)=O)[C@@H](C)O)C(C)C)[C@@H](C)O)N(C)C(=O)[C@H](C)NC(=O)CN(C)C(=O)[C@H](Cc1ccccc1)NC(=O)[C@H](CC(N)=O)NC(=O)[C@H](CC(N)=O)NC(=O)[C@H](Cc1c[nH]cn1)NC(=O)[C@H](Cc1c[nH]cn1)NC(=O)[C@H](CC(C)C)NC(=O)[C@H](Cc1ccccc1)NC(=O)[C@H](CCC(=O)O)NC(=O)[C@H](C)NC(=O)[C@H](CC(C)C)NC(=O)[C@H](CCCNC(=N)N)NC(=O)[C@H](CCC(N)=O)NC(=O)[C@@H](NC(=O)[C@H](C)NC(=O)[C@@H]1CSSC[C@H](NC(=O)[C@H](CCCNC(=N)N)NC(=O)CC[C@H](NC(=O)CCCCCCCCCCCCCCCCCCC(=O)O)C(=O)O)C(=O)N[C@@H](CC(N)=O)C(=O)N[C@@H]([C@@H](C)O)C(=O)N[C@@H](C)C(=O)N[C@@H]([C@@H](C)O)C(=O)N1)[C@@H](C)O [Compound 47, [19CD]-isoGlu-RC()NTATC()ATQRLAEFLHHNNF-Gly(Me)-A-Ile(Me)-LSSTNVGSNTP-NH2] ({C20 diacid-γGlu}-RCNTATCATQRLAEFLHHNNF[Sar]A[NMeI]LSSTNVGSNTP-NH2; disulfide 2-7)
EC50 [1]: 0.06 nM
Solubility, Acetate buffer pH 4 [2]: SS (SS indicates solubility ≥ 1mg/ml)
Solubility, Acetate buffer pH 5 [2]: SS (SS indicates solubility ≥ 1mg/ml)
Solubility, Histidine buffer pH 6 [2]: SS (SS indicates solubility ≥ 1mg/ml)
Solubility, Histidine buffer pH 7 [2]: SS (SS indicates solubility ≥ 1mg/ml)
Solubility, Phosphate buffer pH 6 [2]: SS (SS indicates solubility ≥ 1mg/ml)
Solubility, Phosphate buffer pH 7 [2]: SS (SS indicates solubility ≥ 1mg/ml)
Solubility, Phosphate buffer pH 7.5 [2]: SS (SS indicates solubility ≥ 1mg/ml)

CC[C@H](C)[C@@H](C(=O)N[C@@H](CC(C)C)C(=O)N[C@@H](CO)C(=O)N[C@@H](CO)C(=O)N[C@H](C(=O)N[C@@H](CC(N)=O)C(=O)N[C@H](C(=O)NCC(=O)N[C@@H](CO)C(=O)N[C@@H](CC(N)=O)C(=O)N[C@H](C(=O)N1CCC[C@H]1C(N)=O)[C@@H](C)O)C(C)C)[C@@H](C)O)N(C)C(=O)CN(C)C(=O)[C@H](Cc1ccccc1)NC(=O)[C@H](CC(N)=O)NC(=O)[C@H](CC(N)=O)NC(=O)[C@H](Cc1c[nH]cn1)NC(=O)[C@H](Cc1c[nH]cn1)NC(=O)[C@H](CC(C)C)NC(=O)[C@H](Cc1ccccc1)NC(=O)[C@H](CCC(=O)O)NC(=O)[C@H](C)NC(=O)[C@H](CC(C)C)NC(=O)[C@H](CCCNC(=N)N)NC(=O)[C@H](CCC(N)=O)NC(=O)[C@@H](NC(=O)[C@H](C)NC(=O)[C@@H]1CSSC[C@H](NC(=O)[C@H](CCCNC(=N)N)NC(=O)CC[C@H](NC(=O)CCCCCCCCCCCCCCCCCCC(=O)O)C(=O)O)C(=O)N[C@@H](CC(N)=O)C(=O)N[C@@H]([C@@H](C)O)C(=O)N[C@@H](C)C(=O)N[C@@H]([C@@H](C)O)C(=O)N1)[C@@H](C)O [Compound 48, [19CD]-isoGlu-RC()NTATC()ATQRLAEFLHHNNF-Gly(Me)-Ile(Me)-LSSTNVGSNTP-NH2] ({C20 diacid-γGlu}-RCNTATCATQRLAEFLHHNNF[Sar][NMeI]LSSTNVGSNTP-NH2; disulfide 2-7)
EC50 [1]: 0.12 nM
Solubility, Acetate buffer pH 4 [2]: SS (SS indicates solubility ≥ 1mg/ml)
Solubility, Acetate buffer pH 5 [2]: SS (SS indicates solubility ≥ 1mg/ml)
Solubility, Histidine buffer pH 6 [2]: SS (SS indicates solubility ≥ 1mg/ml)
Solubility, Histidine buffer pH 7 [2]: SS (SS indicates solubility ≥ 1mg/ml)
Solubility, Phosphate buffer pH 6 [2]: SS (SS indicates solubility ≥ 1mg/ml)
Solubility, Phosphate buffer pH 7 [2]: SS (SS indicates solubility ≥ 1mg/ml)
Solubility, Phosphate buffer pH 7.5 [2]: SS (SS indicates solubility ≥ 1mg/ml)

CC[C@H](C)[C@@H](C(=O)N[C@@H](CC(C)C)C(=O)N[C@@H](CO)C(=O)N[C@@H](CO)C(=O)N[C@H](C(=O)N[C@@H](CC(N)=O)C(=O)N[C@H](C(=O)NCC(=O)N[C@@H](CO)C(=O)N[C@@H](CC(N)=O)C(=O)N[C@H](C(=O)N1CCC[C@H]1C(N)=O)[C@@H](C)O)C(C)C)[C@@H](C)O)N(C)C(=O)[C@H](C)NC(=O)[C@H](Cc1ccccc1)NC(=O)[C@H](CC(N)=O)NC(=O)[C@H](CC(N)=O)NC(=O)[C@H](CO)NC(=O)[C@H](CO)NC(=O)[C@H](Cc1c[nH]cn1)NC(=O)[C@H](Cc1c[nH]cn1)NC(=O)[C@H](CC(C)C)NC(=O)[C@H](Cc1ccccc1)NC(=O)[C@H](CCC(=O)O)NC(=O)[C@H](C)NC(=O)[C@H](CC(C)C)NC(=O)[C@H](CCCNC(=N)N)NC(=O)[C@H](CCC(N)=O)NC(=O)[C@@H](NC(=O)[C@H](C)NC(=O)[C@@H]1CSSC[C@H](NC(=O)[C@H](CCCNC(=N)N)NC(=O)CC[C@H](NC(=O)CCCCCCCCCCCCCCCCCCC(=O)O)C(=O)O)C(=O)N[C@@H](CC(N)=O)C(=O)N[C@@H]([C@@H](C)O)C(=O)N[C@@H](C)C(=O)N[C@@H]([C@@H](C)O)C(=O)N1)[C@@H](C)O [Compound 49, [19CD]-isoGlu-RC()NTATC()ATQRLAEFLHHSSNNFA-Ile(Me)-LSSTNVGSNTP-NH2] ({C20 diacid-γGlu}-RCNTATCATQRLAEFLHHSSNNFA[NMeI]LSSTNVGSNTP-NH2; disulfide 2-7)
EC50 [1]: 0.14 nM
Solubility, Acetate buffer pH 4 [2]: II (II indicates solubility ≤ 1 mg/ml)
Solubility, Acetate buffer pH 5 [2]: II (II indicates solubility ≤ 1 mg/ml)
Solubility, Histidine buffer pH 6 [2]: II (II indicates solubility ≤ 1 mg/ml)
Solubility, Histidine buffer pH 7 [2]: II (II indicates solubility ≤ 1 mg/ml)
Solubility, Phosphate buffer pH 6 [2]: II (II indicates solubility ≤ 1 mg/ml)
Solubility, Phosphate buffer pH 7 [2]: II (II indicates solubility ≤ 1 mg/ml)
Solubility, Phosphate buffer pH 7.5 [2]: II (II indicates solubility ≤ 1 mg/ml)

CC[C@H](C)[C@@H](C(=O)N[C@@H](CC(C)C)C(=O)N[C@@H](CO)C(=O)N[C@@H](CO)C(=O)N[C@H](C(=O)N[C@@H](CC(N)=O)C(=O)N[C@H](C(=O)NCC(=O)N[C@@H](CO)C(=O)N[C@@H](CC(N)=O)C(=O)N[C@H](C(=O)N1CCC[C@H]1C(N)=O)[C@@H](C)O)C(C)C)[C@@H](C)O)N(C)C(=O)[C@H](C)NC(=O)CN(C)C(=O)[C@H](CC(N)=O)NC(=O)[C@H](CC(N)=O)NC(=O)[C@H](CO)NC(=O)[C@H](CO)NC(=O)[C@H](Cc1c[nH]cn1)NC(=O)[C@H](Cc1c[nH]cn1)NC(=O)[C@H](CC(C)C)NC(=O)[C@H](Cc1ccccc1)NC(=O)[C@H](CCC(=O)O)NC(=O)[C@H](C)NC(=O)[C@H](CC(C)C)NC(=O)[C@H](CCCNC(=N)N)NC(=O)[C@H](CCC(N)=O)NC(=O)[C@@H](NC(=O)[C@H](C)NC(=O)[C@@H]1CSSC[C@H](NC(=O)[C@H](CCCNC(=N)N)NC(=O)CC[C@H](NC(=O)CCCCCCCCCCCCCCCCCCC(=O)O)C(=O)O)C(=O)N[C@@H](CC(N)=O)C(=O)N[C@@H]([C@@H](C)O)C(=O)N[C@@H](C)C(=O)N[C@@H]([C@@H](C)O)C(=O)N1)[C@@H](C)O [Compound 50, [19CD]-isoGlu-RC()NTATC()ATQRLAEFLHHSSNN-Gly(Me)-A-Ile(Me)-LSSTNVGSNTP-NH2] ({C20 diacid-γGlu}-RCNTATCATQRLAEFLHHSSNN[Sar]A[NMeI]LSSTNVGSNTP-NH2; disulfide 2-7)
EC50 [1]: 0.14 nM
Solubility, Acetate buffer pH 4 [2]: SS (SS indicates solubility ≥ 1mg/ml)
Solubility, Acetate buffer pH 5 [2]: SS (SS indicates solubility ≥ 1mg/ml)
Solubility, Histidine buffer pH 6 [2]: SS (SS indicates solubility ≥ 1mg/ml)
Solubility, Histidine buffer pH 7 [2]: SS (SS indicates solubility ≥ 1mg/ml)
Solubility, Phosphate buffer pH 6 [2]: SS (SS indicates solubility ≥ 1mg/ml)
Solubility, Phosphate buffer pH 7 [2]: SS (SS indicates solubility ≥ 1mg/ml)
Solubility, Phosphate buffer pH 7.5 [2]: SS (SS indicates solubility ≥ 1mg/ml)
